What was measured:
Assay in all cases: relative viability (nuclei count vs DMSO), 5 days (fraction); higher = more cells survive
NCI-H2347 = system: NCI-H2347
Summary of the method: (§1)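 After 5 days of treatment, lung cancer cells in 1536-well plates were fixed and stained in a single step (final 0.05% Triton X-100, 1% formaldehyde, 1 ug/ml Hoechst) and their nuclei counted on 4× images. Treatment had been applied by pin tool the day after seeding as one drug alone or as a fixed anchor-drug dose with five library-drug doses (not always all listed) in √10 steps. Relative viability is the nuclei count of treated wells divided by that of vehicle wells, and values are medians of duplicate plates.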

HARA = system: HARA
Summary of the method: as §1

HCC-44 = system: HCC-44
Summary of the method: as §1

NCI-H441 = system: NCI-H441
Summary of the method: as §1

NCI-H647 = system: NCI-H647
Summary of the method: as §1

201T = system: 201T
Summary of the method: as §1

NCI-H727 = system: NCI-H727
Summary of the method: as §1

NCI-H2023 = system: NCI-H2023
Summary of the method: as §1

LCLC-103H = system: LCLC-103H
Summary of the method: as §1

NCI-H2087 = system: NCI-H2087
Summary of the method: as §1

NCI-H1666 = system: NCI-H1666
Summary of the method: as §1

NCI-H3122 = system: NCI-H3122
Summary of the method: as §1

NCI-H838 = system: NCI-H838
Summary of the method: as §1

NCI-H2126 = system: NCI-H2126
Summary of the method: as §1

BEN = system: BEN
Summary of the method: as §1

NCI-H2009 = system: NCI-H2009
Summary of the method: as §1

LOU-NH91 = system: LOU-NH91
Summary of the method: as §1

NCI-H23 = system: NCI-H23
Summary of the method: as §1

EMC-BAC-2 = system: EMC-BAC-2
Summary of the method: as §1

NCI-H1993 = system: NCI-H1993
Summary of the method: as §1

NCI-H596 = system: NCI-H596
Summary of the method: as §1

NCI-H650 = system: NCI-H650
Summary of the method: as §1

NCI-H1395 = system: NCI-H1395
Summary of the method: as §1

Compound: NC(=O)Nc1cc(-c2cccc(F)c2)sc1C(=O)N[C@H]1CCCNC1 [AZD7762] + CS(=O)(=O)N1CCN(Cc2cc3nc(-c4cccc5[nH]ncc45)nc(N4CCOCC4)c3s2)CC1 [Pictilisib] (partner 1 µM)
- relative viability (NCI-H2347; first compound 0.01 µM): 0.598
- relative viability (NCI-H2347; first compound 0.03162 µM): 0.721
- relative viability (NCI-H2347; first compound 0.1 µM): 0.623
- relative viability (NCI-H2347; first compound 0.3162 µM): 0.788
- relative viability (NCI-H2347; first compound 1 µM): 0.292
- relative viability (HARA; first compound 0.01 µM): 0.346
- relative viability (HARA; first compound 0.03162 µM): 0.435
- relative viability (HARA; first compound 0.1 µM): 0.353
- relative viability (HARA; first compound 0.3162 µM): 0.412
- relative viability (HARA; first compound 1 µM): 0.32
- relative viability (HCC-44; first compound 0.01 µM): 0.642
- relative viability (HCC-44; first compound 0.03162 µM): 0.627
- relative viability (HCC-44; first compound 0.1 µM): 0.584
- relative viability (HCC-44; first compound 0.3162 µM): 0.612
- relative viability (HCC-44; first compound 1 µM): 0.556
- relative viability (NCI-H441; first compound 0.01 µM): 0.494
- relative viability (NCI-H441; first compound 0.03162 µM): 0.594
- relative viability (NCI-H441; first compound 0.1 µM): 0.7
- relative viability (NCI-H441; first compound 0.3162 µM): 0.556
- relative viability (NCI-H441; first compound 1 µM): 0.555
- relative viability (NCI-H647; first compound 0.03162 µM): 0.559
- relative viability (NCI-H647; first compound 0.1 µM): 0.427
- relative viability (NCI-H647; first compound 0.3162 µM): 0.375
- relative viability (NCI-H647; first compound 1 µM): 0.16
- relative viability (201T; first compound 0.01 µM): 0.707
- relative viability (201T; first compound 0.03162 µM): 0.689
- relative viability (201T; first compound 0.1 µM): 0.668
- relative viability (201T; first compound 0.3162 µM): 0.65
- relative viability (201T; first compound 1 µM): 0.738
- relative viability (NCI-H727; first compound 0.01 µM): 0.429
- relative viability (NCI-H727; first compound 0.03162 µM): 0.346
- relative viability (NCI-H727; first compound 0.1 µM): 0.321
- relative viability (NCI-H727; first compound 0.3162 µM): 0.243
- relative viability (NCI-H727; first compound 1 µM): 0.269
- relative viability (NCI-H2023; first compound 0.01 µM): 0.228
- relative viability (NCI-H2023; first compound 0.03162 µM): 0.227
- relative viability (NCI-H2023; first compound 0.1 µM): 0.176
- relative viability (NCI-H2023; first compound 0.3162 µM): 0.11
- relative viability (NCI-H2023; first compound 1 µM): 0.091
- relative viability (LCLC-103H; first compound 0.01 µM): 0.659
- relative viability (LCLC-103H; first compound 0.03162 µM): 0.609
- relative viability (LCLC-103H; first compound 0.1 µM): 0.574
- relative viability (LCLC-103H; first compound 0.3162 µM): 0.629
- relative viability (LCLC-103H; first compound 1 µM): 0.514
- relative viability (NCI-H2087; first compound 0.01 µM): 0.982
- relative viability (NCI-H2087; first compound 0.03162 µM): 0.902
- relative viability (NCI-H2087; first compound 0.1 µM): 1.23
- relative viability (NCI-H2087; first compound 0.3162 µM): 1.31
- relative viability (NCI-H2087; first compound 1 µM): 1.09
- relative viability (NCI-H1666; first compound 0.01 µM): 0.603
- relative viability (NCI-H1666; first compound 0.03162 µM): 0.407
- relative viability (NCI-H1666; first compound 0.1 µM): 0.55
- relative viability (NCI-H1666; first compound 0.3162 µM): 0.589
- relative viability (NCI-H1666; first compound 1 µM): 0.411
- relative viability (NCI-H3122; first compound 0.01 µM): 0.623
- relative viability (NCI-H3122; first compound 0.03162 µM): 0.646
- relative viability (NCI-H3122; first compound 0.1 µM): 0.638
- relative viability (NCI-H3122; first compound 0.3162 µM): 0.333
- relative viability (NCI-H3122; first compound 1 µM): 0.332
- relative viability (NCI-H838; first compound 0.01 µM): 0.544
- relative viability (NCI-H838; first compound 0.03162 µM): 0.45
- relative viability (NCI-H838; first compound 0.1 µM): 0.471
- relative viability (NCI-H838; first compound 0.3162 µM): 0.53
- relative viability (NCI-H838; first compound 1 µM): 0.25
- relative viability (NCI-H2126; first compound 0.01 µM): 0.491
- relative viability (NCI-H2126; first compound 0.03162 µM): 0.482
- relative viability (NCI-H2126; first compound 0.1 µM): 0.552
- relative viability (NCI-H2126; first compound 0.3162 µM): 0.518
- relative viability (NCI-H2126; first compound 1 µM): 0.612
- relative viability (BEN; first compound 0.01 µM): 0.713
- relative viability (BEN; first compound 0.03162 µM): 0.689
- relative viability (BEN; first compound 0.1 µM): 0.537
- relative viability (BEN; first compound 0.3162 µM): 0.539
- relative viability (BEN; first compound 1 µM): 0.41
- relative viability (NCI-H2009; first compound 0.01 µM): 0.867
- relative viability (NCI-H2009; first compound 0.03162 µM): 0.865
- relative viability (NCI-H2009; first compound 0.1 µM): 0.909
- relative viability (NCI-H2009; first compound 0.3162 µM): 0.677
- relative viability (NCI-H2009; first compound 1 µM): 0.321
- relative viability (LOU-NH91; first compound 0.01 µM): 0.546
- relative viability (LOU-NH91; first compound 0.03162 µM): 0.555
- relative viability (LOU-NH91; first compound 0.1 µM): 0.473
- relative viability (LOU-NH91; first compound 0.3162 µM): 0.489
- relative viability (LOU-NH91; first compound 1 µM): 0.595
- relative viability (NCI-H23; first compound 0.01 µM): 0.56
- relative viability (NCI-H23; first compound 0.03162 µM): 0.533
- relative viability (NCI-H23; first compound 0.1 µM): 0.446
- relative viability (NCI-H23; first compound 0.3162 µM): 0.358
- relative viability (NCI-H23; first compound 1 µM): 0.228
- relative viability (EMC-BAC-2; first compound 0.01 µM): 0.581
- relative viability (EMC-BAC-2; first compound 0.03162 µM): 0.576
- relative viability (EMC-BAC-2; first compound 0.1 µM): 0.574
- relative viability (EMC-BAC-2; first compound 0.3162 µM): 0.542
- relative viability (EMC-BAC-2; first compound 1 µM): 0.527
- relative viability (NCI-H1993; first compound 0.01 µM): 0.823
- relative viability (NCI-H1993; first compound 0.03162 µM): 0.925
- relative viability (NCI-H1993; first compound 0.1 µM): 0.717
- relative viability (NCI-H1993; first compound 0.3162 µM): 0.725
- relative viability (NCI-H1993; first compound 1 µM): 0.704
- relative viability (NCI-H596; first compound 0.01 µM): 0.405
- relative viability (NCI-H596; first compound 0.03162 µM): 0.411
- relative viability (NCI-H596; first compound 0.1 µM): 0.487
- relative viability (NCI-H596; first compound 0.3162 µM): 0.454
- relative viability (NCI-H596; first compound 1 µM): 0.389
- relative viability (NCI-H650; first compound 0.01 µM): 0.906
- relative viability (NCI-H650; first compound 0.03162 µM): 0.854
- relative viability (NCI-H650; first compound 0.1 µM): 0.855
- relative viability (NCI-H650; first compound 0.3162 µM): 1
- relative viability (NCI-H650; first compound 1 µM): 0.839
- relative viability (NCI-H1395; first compound 0.01 µM): 0.663
- relative viability (NCI-H1395; first compound 0.03162 µM): 0.643
- relative viability (NCI-H1395; first compound 0.1 µM): 0.674
- relative viability (NCI-H1395; first compound 0.3162 µM): 0.514
- relative viability (NCI-H1395; first compound 1 µM): 0.403

From the supplement of paper PMC10307832
